Laboratory results from US8137919B2 (Montefiore Medical Center, priority 2008, dated 2012).

Legend:
Format in all cases: cell-based
SW403 cells = test: Apoptosis, PI staining and FACS; conditions: 5 microMolar, 72 hours treatment
Protocol: FIG. 4. […] Cell cycle distribution and apoptosis was assessed by PI staining and FACS analysis. Values shown are mean±SEM, n=3, #P<0.05.

[1] = tested on: cetuximab sensitive and resistant cell lines; test: Growth response to EGF, MTT assay; conditions: 0.5 or 5 ng/ml EGF
Protocol: Cell growth was assayed by MTT assay. Values shown are mean±SEM from a representative experiment, #p<0.05. Experiments were repeated 3 separate times.
(§1) For each cell line, one plate was harvested for determination of t=0 absorbance values. Viable cells were determined 72 h post-treatment using the MTT assay by measurement of absorbance at 570 nm. The relative rate of cell growth for each cell line was factored into the analysis by subtracting the absorbance at time zero from both the control and treatment groups. All the experiments were replicated a minimum of 3 times. For determination of sensitivity to EGF, cells were serum starved for 4 h then treated with 0, 0.5 or 5 ng/ml EGF for 24-72 h.

[2] = tested on: GEO, LIM1215, and SW403 (cetuximab sensitive cell lines); test: Proliferative response to EGF, S-phase; conditions: 24 h post EGF treatment (0.5 ng/ml), serum-free
Protocol: as §1
(§2) To test this, the proliferative response of the 3 most cetuximab-sensitive and 3 most cetuximab-resistant cell lines to exogenous EGF-treatment was examined under serum-free conditions (FIG. 6). […] These findings indicate that a subset of colon tumors exist that are dependent upon ligand activation of EGFR for their growth, and it is these cell lines that are growth inhibited by blockade of ligand binding to the EGFR.

[3] = tested on: LIM2405, HCT15, and HCT116 (cetuximab resistant cell lines); test: Proliferative response to EGF, S-phase; conditions: 24 h post EGF treatment (0.5 ng/ml), serum-free
Protocol: as §1, §2

Compound | apoptosis (SW403 cells) | cell growth (MTT) [1] | change in S-phase [2] | change in S-phase [3]
O=c1[nH]cc(F)c(=O)[nH]1 [5FU, 5-fluoruracil] | approximately 50% |  |  | 
EGF: EGFR activator, EGFR ligand |  | preferentially increased growth of the cetuximab sensitive cell lines | significant increase | not
